Experimental data from patent US20250282764A1, “IMIDAZOLE HETEROCYCLE BASED COMPOUNDS AND METHODS OF TREATING CANCER” (King Abdulaziz University, priority 2024, published 2025).
pIC50: −log10 of the molar value. Like-named read-outs stand apart in the source and are kept apart here.

Key:
[1] = Binding to mouse plasma proteins (equilibrium dialysis); format: in vitro ADME
Procedure: Binding to mouse plasma proteins was determined as follows. The equilibrium dialysis method for determining plasma protein binding was performed using 96-well dialyzer plates with molecular weight cutoff of 5K (Harvard Apparatus, Holliston, MA) and a dual-plate rotator set to maximum speed (Harvard Apparatus, Holliston, MA) located in a 37° C. incubator with a 10% CO2-atmospheric environment. Assays were run in triplicate. The test compound was added to CD-1 mouse plasma (Innovative Research, Novi, MI, sodium heparin added as anticoagulant; pH adjusted to 7.4 with 2N HCl on day of use) in DMSO (final DMSO concentration 0.4%) to give 10 μM final concentration. Drug/plasma mixture and buffer (Dulbecco's phosphate-buffered saline 1× without calcium and magnesium, Mediatech, Inc., Herndon, VA) were placed in their respective sides, wells were capped, and the plate was placed in the rotator and allowed to dialyze for 22 h. […] Concentrations of analyte from each side of the dialysis plate were determined by LC/MS/MS on a Waters Xevo TQ instrument as described above using positive electrospray ionization. […] The fraction unbound was calculated by dividing the drug concentration in the buffer side of the dialysis plate by the drug concentration in the plasma side.

[2] = Stability in mouse liver microsomes; format: in vitro ADME
Procedure: The clearance of compound (Id) in mouse or human liver microsomes was determined at 37° C. Both mouse and human liver microsomes were obtained from Merck KGaA, (Darmstadt, Germany), Cat. No. M9441 (Mouse liver microsomes) and M0317 (Human liver microsomes). Assays were conducted in triplicate in 96-deep well polypropylene plates. […] At five time points, reaction mixture aliquots were transferred to 96-shallow well stop plates on ice containing acetonitrile with 0.1 μM propafenone. […] Standard curves for test compounds were generated using 5 concentrations in triplicate that were processed as above but with zero incubation time. Stop plates were centrifuged at 2000 g for 10 min and then supernatant aliquots were transferred to a Waters Aquity® UPLC 700 μL 96-well sample plate with cap mat (Waters, Milford, MA). The amount of compound remaining in the supernatant was quantified by LC/MS/MS using a Waters Xevo TQ MS (electrospray positive mode) coupled to a Waters Aquity® UPLC (BEH column, C18). Propafenone was used as the internal standard. GraphPad® Prism v 5.04 was used for nonlinear fitting of time course data to generate t1/2 values.

MV4-11 = assay: CellTiter-Blue cell viability assay, MV4-11; format: cell-based, human; conditions: 48 h, mean of triplicates
Procedure: (§1) Cell culture of leukemia cell lines model was performed as follows. HL60, K562, and NB4 cell lines were purchased from CLS Cell Line Service GmbH (Eppelheim, Germany). MV4-11 cell line was purchased from American Type Culture Collection (ATCC; Virginia, USA). KG1α also referred to as KG1a was a gift from Prof. Ghulam Mufti (King College London, UK). Kasumi-1 cell line was purchased from Nawah Scientific (Cairo, Egypt). All cell lines were cultured in Roswell Park Memorial Institute-1640 (RPMI-1640) culture medium supplemented with 10% fetal bovine serum (FBS) (Thermo Fisher Scientific) and 0.1% ciprofloxacin (10 μg/ml; Cipla Limited; Mumbai, India). Cells were maintained in a humidified incubator at 37° C. with 5% CO2.
(§2) Cell viability was determined using the CellTiter-Blue® Cell Viability Assay kit (Promega, Madison, WI, USA). Approximately […] were plated in 96 well plate in the presence of increasing drug concentration in triplicate and incubated for 48 h at 37° C. in a humidified incubator. After the incubation period, 20 μL of the cell titer blue reagent was added to each well and the plate was incubated for additional 2 h for the development of florescence. Florescence was measured at 540Ex/590Em on SpectraMax i3 Multi-Mode Microplate Reader (Molecular Devices, LLC; San Jose, CA, USA). […]

HL60 = assay: CellTiter-Blue cell viability assay, HL60; format: cell-based, human; conditions: 48 h, mean of triplicates
Procedure: as §1, §2

Kasumi-1 = assay: CellTiter-Blue cell viability assay, Kasumi-1; format: cell-based, human; conditions: 48 h, mean of triplicates
Procedure: as §1, §2

KG1a = assay: CellTiter-Blue cell viability assay, KG1a; format: cell-based, human; conditions: 48 h, mean of triplicates
Procedure: as §1, §2

HCT116 = assay: CellTiter-Blue cell viability assay, HCT116; format: cell-based, human; conditions: 50% cell viability vs untreated, mean of triplicates
Procedure: Cell culture of colorectal carcinoma cell lines was performed as follows. DLD-1, HCT116, and HT-29 cells were purchased from CLS Cell Line Service GmbH (Eppelheim, Germany) and cultured in Dulbecco's Modified Eagle Medium (DMEM) high glucose, GlutaMAX™ Supplement, pyruvate (Thermo Fisher Scientific, Paisley, UK) supplemented with 10% fetal bovine serum (FBS; Thermo Fisher Scientific), 200 U/mL penicillin, and 200 μg/ml streptomycin (Thermo Fisher Scientific), at 37° C. with 5% CO2 in a humidified incubator.
The CellTiter®-Blue Cell Viability assay was acquired from Promega Corporation (Madison, WI, USA). Cell viability assay was performed as follows: DLD-1 (4×10^3/well), HCT116 (4×10^3/well), and HT-29 (7×10^3/well) were incubated with a concentration gradient of compound (Id) ranging from 0.01 to 20 μM, in 96-well plates for 48 h at 37° C. Subsequently, 20 μl CellTiter®-Blue Cell Viability reagent was added to each well and incubated for an additional 2 h for the development of fluorescence. The fluorescence emission was measured at 590 nm using a SpectraMax® i3× Multi-Mode microplate reader (Molecular Devices, LLC, San Jose, CA, USA) and plotted against drug concentrations to determine the mean inhibitory concentration of compound (Id) producing 50% decrease in cell viability (IC50). Experiments were performed in triplicates.

Structure (SMILES)	Mouse PPB (% free) ([1]; 10 μM, equilibrium dialysis 22 h) [%]	Mic. Ctrl. Mouse % @60 min [2] [%]	Stability MLM t1/2 ([2]; mouse liver microsomes, in presence of NADPH, 37° C.) [min]	pIC50 (MV4-11)	pIC50 (HL60)	pIC50 (Kasumi-1)	pIC50 (KG1a)	pIC50 (HCT116; 48 h)	fraction unbound at 22 h, 10 μM ([1]; CD-1, mouse, plasma, pH 7.4, equilibrium dialysis 22 h, read-out: Mouse PPB (% free))	half-life ([2]; male, CD-1, mouse liver microsomes, in presence of NADPH, 37° C., read-out: Stability MLM t1/2) [min]	Mic. Ctrl. Mouse % @60 min ([2]; without NADPH, percent remaining after 60 min incubation) [%]	Mic. Ctrl. Mouse % @60 min ([2]; without NADPH, percent remaining after 60 min incubation, listed as compound (Id))	pIC50 (MV4-11; Homo sapiens, MV4-11)	pIC50 (HL60; Homo sapiens, HL-60)	pIC50 (Kasumi-1; Homo sapiens, Kasumi 1)	pIC50 (KG1a; Homo sapiens, KG-1a)	pIC50 (HCT116; Homo sapiens, HCT-116, 48 h)
COc1ccc(/C=C2\N=C(C)N(c3ccc(CC(=O)NCc4ccccc4)cc3)C2=O)cc1 [KIM-161, reference compound]	5	112	14.8	6.44	6.62	6.78	6.55	5.75	–	–	–	–	–	–	–	–	–
CC1=N/C(=C\c2ccc(C)o2)C(=O)N1c1ccc(CC(=O)NCc2ccccc2)cc1 [Compound (Id), 2-Methyl-4-(5-methyl-2-furyl)methylene-1-[4-(benzylaminocarbonylmethyl)phenyl]-5-oxo-1H-imidazole]	–	–	–	–	–	–	–	5.84	0.032	16.6	90	did not change	6.60	6.35	6.66	6.31	5.84
